From patent publication US4257941A, “Polycyclic nitrogen-containing compounds” (BASF Aktiengesellschaft, priority 1976, dated 1981)

Legend:
[1] = system: cotton; test: Induction of flowering and growth height of cotton, hydroponic (Example 18); type: in vivo; conditions: for Shoot length: 4 weeks; for No. of squares per vessel (3 plants): control 0, average of 3 vessels; for Shoot length rel.: control 100
Experimental: Cotton plants were subjected to hydroponic treatment under the same conditions as in Example 16. The active ingredients were added (1.25 mg/vessel=0.3 ppm and 5 mg/vessel=1.25 ppm) at a height of the plant of 15 to 18 cm. […] The results below are averages from 3 vessels, each of 3 plants.

[2] = system: Euphorbia geniculata; test: Growth-regulating action, preemergence, greenhouse (Example 35, Table 2); type: in vivo; conditions: for growth height relative: control 100
Text: The vessels used for the experiments were plastic pots having a volume of 1,130 cm^3 (Table A) or paraffined paper cups having a volume of 170 cm^3 (Table B). The pots and cups were filled with a sandy loam. The seeds of the test plants-separated by species-were sown shallow. Preemergence treatment (soil treatment) was effected immediately after sowing and before germination of the seeds. Seeds lying on the surface came into contact with the active ingredients. Postemergence treatment (leaf treatment) took place at an average growth height of the plants (depending on the rate of growth) of from 6 to 10 cm. The substances were suspended, emulsified or dissolved in water as diluent and applied by means of fine nozzles. The vessels were kept in the greenhouse in a temperature range of 12° C. to 25° C., and were regularly sprinkler irrigated for the duration of the experiment. The observation period was 6 to 8 weeks.
Further experiments were carried out in the greenhouse under the condition described in Example 11. […] As the plants which were examined liked the warmth (Eupghorbia geniculate, Arachis hypogaea, Cynodon dactylon), they were kept at from 20°-30° C. Cynodon dactylon from seed was cut once and the young growth treated postemergence.

| Compound | Shoot length ([1]; 0.3 ppm) | No. of squares per vessel (3 plants) ([1]; 0.3 ppm) | Shoot length rel. ([1]; 0.3 ppm) | Shoot length ([1]; 1.25 ppm) | No. of squares per vessel (3 plants) ([1]; 1.25 ppm) | Shoot length rel. ([1]; 1.25 ppm) | Growth height ([2]; 0.25 kg/ha) | growth height relative ([2]; 0.25 kg/ha) | Growth height ([2]; 0.5 kg/ha) | growth height relative ([2]; 0.5 kg/ha) | Growth height ([2]; 1.0 kg/ha) | growth height relative ([2]; 1.0 kg/ha) |
| --- | --- | --- | --- | --- | --- | --- | --- | --- | --- | --- | --- | --- |
| Clc1ccc(N2N=NC3C4CC(C5N=NC45)C32)cc1 (stereo not drawn) [drawing 391] | 40.2 cm | 4.0 | 85.2 | 27.8 cm | 8.7 | 58.9 | – | – | – | – | – | – |
| FC(F)(F)c1cccc(N2C3C4CC(C5N=NC45)C32)c1 (stereo not drawn) [drawing 438] | – | – | – | – | – | – | 6 cm | 54 | 5 cm | 45 | 3 cm | 27 |
| CN(C)NC(=O)CCC(=O)O [drawing 439] | – | – | – | – | – | – | 12 cm | 109 | 12 cm | 109 | 10 cm | 91 |
